Data set [1] concerns the target T1, AKR1C3 (Homo sapiens, UniProt P42330).
T1 sequence (P42330 1-323): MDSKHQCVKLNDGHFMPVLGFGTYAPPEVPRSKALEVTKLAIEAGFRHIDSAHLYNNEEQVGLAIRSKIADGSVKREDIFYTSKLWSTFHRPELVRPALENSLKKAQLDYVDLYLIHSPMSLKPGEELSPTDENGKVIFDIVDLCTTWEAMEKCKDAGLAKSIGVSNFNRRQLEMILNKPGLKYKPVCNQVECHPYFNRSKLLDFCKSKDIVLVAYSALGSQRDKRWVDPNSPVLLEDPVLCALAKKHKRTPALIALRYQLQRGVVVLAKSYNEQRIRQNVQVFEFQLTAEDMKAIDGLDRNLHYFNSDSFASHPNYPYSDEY
The settings on record: 100 nM androstenedione, 24 hrs, LC-MS/MS (FIG. 2).
Description: (§1) AKR1C3 expression was checked by Western blot to ensure that the cells over-express AKR1C3. […] Medium was changed to RPMI+1% csFBS without phenol red and maintained in this medium for 3 days to reduce basal hormone levels. […] The data was plotted in SigmaPlot (Systat Software Inc.) and the IC50 values for inhibitors were calculated.
(§2) HEK-293 cells stably transfected with AKR1C3 were plated in 24 well plates and were maintained in RPMI+1% csFBS without phenol red for 2 days to reduce the basal steroid levels.

Another data set concerns the target T2, ER-α (Homo sapiens, UniProt P03372).
T2 sequence (P03372 311-547 limits assumed): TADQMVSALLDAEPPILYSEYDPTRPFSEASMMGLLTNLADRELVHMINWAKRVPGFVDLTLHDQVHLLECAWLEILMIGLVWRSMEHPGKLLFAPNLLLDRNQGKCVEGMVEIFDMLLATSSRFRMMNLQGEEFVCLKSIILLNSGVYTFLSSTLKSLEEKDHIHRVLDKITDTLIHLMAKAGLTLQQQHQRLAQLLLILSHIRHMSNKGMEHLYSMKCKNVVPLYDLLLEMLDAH
Kind of data set: ER-α ligand binding domain competitive binding with [3H]Estradiol.

The next data set deals with ER-β (Homo sapiens, UniProt Q92731). Nature of the data set: ER-β ligand binding domain competitive binding with [3H]Estradiol.
Chain of ER-β (Q92731 264-498 limits assumed, species assumed): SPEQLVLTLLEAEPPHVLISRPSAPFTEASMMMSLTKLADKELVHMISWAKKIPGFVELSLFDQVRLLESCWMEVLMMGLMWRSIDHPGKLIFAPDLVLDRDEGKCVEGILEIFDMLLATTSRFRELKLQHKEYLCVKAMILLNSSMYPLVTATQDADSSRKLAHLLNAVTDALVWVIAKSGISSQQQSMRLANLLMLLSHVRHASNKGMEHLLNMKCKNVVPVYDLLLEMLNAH
Data set [2] addresses T1, AKR1C3. Nature of the data set: cell-based.
Description: as §1, §2
Data set [3] in a line: Liver microsome incubation (HLM Phase I and Phase I + II), LC-MS/MS. The class given is in vitro ADME, human. The settings on record: for microsomal CLint: human, human liver microsomes. On the procedure: Stock solutions of prespective AKR1C3 inhibitors were prepared in DMSO at 5 mM and were incubated with liver microsomes (0.1 mg/mL). Incubations were conducted at 37° C. in a shaking water bath for 10 minutes (microsomes). Incubation durations were selected based on time course study (microsomes) or published literature (recombinant enzymes). Prepared samples were analyzed using LC-MS/MS.
In general terms: Microsomes from liver hold many membrane-bound enzymes, among them those of drug oxidation.

In the next data set the target is T3, ER-alpha (Homo sapiens, UniProt P03372).
T3 construct: expressed in transfected cells; host or cells: HEK-293
T3 sequence (P03372 1-595): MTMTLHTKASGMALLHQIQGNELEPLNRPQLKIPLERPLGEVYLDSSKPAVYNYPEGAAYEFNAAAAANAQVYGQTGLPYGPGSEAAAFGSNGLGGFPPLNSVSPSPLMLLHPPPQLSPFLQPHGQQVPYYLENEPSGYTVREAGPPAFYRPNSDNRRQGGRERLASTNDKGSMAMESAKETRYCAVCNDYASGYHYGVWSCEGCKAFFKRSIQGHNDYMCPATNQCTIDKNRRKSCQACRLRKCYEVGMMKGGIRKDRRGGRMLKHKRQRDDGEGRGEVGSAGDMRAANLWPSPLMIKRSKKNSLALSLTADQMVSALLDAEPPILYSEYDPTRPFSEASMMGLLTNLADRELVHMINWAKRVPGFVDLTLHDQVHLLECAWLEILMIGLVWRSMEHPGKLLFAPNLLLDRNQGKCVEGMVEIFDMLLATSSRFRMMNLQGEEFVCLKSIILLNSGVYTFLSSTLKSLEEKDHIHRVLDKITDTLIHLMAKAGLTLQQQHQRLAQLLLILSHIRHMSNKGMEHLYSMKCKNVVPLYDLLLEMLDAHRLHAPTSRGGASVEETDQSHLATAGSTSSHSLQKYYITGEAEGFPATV
Kind of data set: ER-alpha transactivation (ERE-LUC luciferase) in HEK-293 cells.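 As to all read-outs here: HEK-293 cells co-transfected with an ER-alpha expression plasmid, an ERE-driven firefly luciferase reporter and a CMV Renilla control, with the firefly signal normalized to Renilla.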 The class given is cell-based. The note with it: for EC50: agonist mode, drug alone, read-out: Agonist ER-α; for IC50: antagonist mode, in combination with estradiol, read-out: Antagonist ER-α.

A further data set deals with T4, ER-beta (Homo sapiens, UniProt Q92731).
T4 construct: expressed in transfected cells; host or cells: HEK-293
T4 sequence (Q92731 whole entry, species assumed): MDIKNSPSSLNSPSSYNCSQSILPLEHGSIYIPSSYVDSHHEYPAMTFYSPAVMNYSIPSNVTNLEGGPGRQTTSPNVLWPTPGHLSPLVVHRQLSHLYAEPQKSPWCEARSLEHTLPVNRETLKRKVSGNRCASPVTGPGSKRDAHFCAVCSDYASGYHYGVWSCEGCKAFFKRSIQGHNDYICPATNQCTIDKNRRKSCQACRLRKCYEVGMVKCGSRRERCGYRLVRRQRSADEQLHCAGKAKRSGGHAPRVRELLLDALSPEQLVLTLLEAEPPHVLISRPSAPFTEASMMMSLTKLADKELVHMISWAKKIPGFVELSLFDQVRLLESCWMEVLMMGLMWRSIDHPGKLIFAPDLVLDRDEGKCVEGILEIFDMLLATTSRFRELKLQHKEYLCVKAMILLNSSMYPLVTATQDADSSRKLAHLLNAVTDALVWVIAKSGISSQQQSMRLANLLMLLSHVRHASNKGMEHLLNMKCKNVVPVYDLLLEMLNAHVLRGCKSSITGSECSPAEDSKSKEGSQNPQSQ
Nature of the data set: ER-beta transactivation (ERE-LUC luciferase) in HEK-293 cells.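 As to all read-outs here: HEK-293 cells transiently transfected with an ER-β expression plasmid and ERE-LUC reporter, firefly luciferase read-out normalized to co-transfected Renilla luciferase.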 The format is cell-based. The note with it: for EC50: agonist mode, drug alone, read-out: Agonist ER-β; for IC50: antagonist mode, in combination with estradiol, read-out: Antagonist ER-β.

For data set [4], the target named is T1, AKR1C3. Nature of the data set: Purified AKR1C3 enzyme assay, [14C]-A'dione to testosterone, TLC based. The format is biochemical. Set-up: GST (N); made in house; host or cells: bacterial culture, IPTG induced (E. coli BL21-DE3 is named only for the crystallography preparation). On the procedure:
Perkin Elmer; […] American Radiolabeled Chemicals, St. Louis, Mo.). The reaction was stopped by the addition of 400 μl ethyl acetate, vortexed, and spun for […] at 2000 rpm. The upper layer was transferred to a new tube and air dried. The pellet was resuspended in 25 μl of methanol, spotted on TLC plates and fractionated in TLC chamber with 3:1 chloroform:ethyl acetate. Once the mobile phase reached the top, the plates were dried and exposed to a phosphoimager screen overnight. […] Perkin Elmer) was incubated at 37° C. for 60 min. The reaction was stopped by the addition of 400 μl ethyl acetate, vortexed, and spun for […] at 2000 rpm. The upper layer was transferred to a new tube and air dried. The pellet was resuspended in 25 μl of methanol, spotted on TLC plates and fractionated in TLC chamber with 3:1 chloroform:ethyl acetate. Once the mobile phase reached the top, the plates were dried and exposed to a phosphoimager screen overnight.

The target of data set [5] is T1, AKR1C3.
Description: as §1, §2
Where [6] appears, read: HLM Phase I + II, read-out: HLM Phase I + II CLint.
[7] abbreviates: HLM Phase I, read-out: HLM Phase I CLint.
The mark [8] stands for this setting: 10 μM inhibitor, purified AKR1C3 TLC based enzyme assay, read-out: AKR1C3 inhibition at 10 μM.
The mark [9] stands for this setting: read-out: % inhibition from control HSD-5 (10 uM).

What is called Ki is a measure of affinity in units of concentration, obtained from inhibition or displacement. High values mean a looser hold on the target, low ones a stronger hold on the target. By inhibition is commonly meant how much of the control response was suppressed.

Values joined by “and” are separate entries in the source; they are usually repeats but may differ in a detail not shown here. Identical values can stand only once. Like-named read-outs stand apart in the source and are kept apart here.

Consider `NC(=O)c1ccc(-n2cc(-c3ccc(C(F)(F)F)c(F)c3)c3cc(O)ccc3c2=O)cc1` [Compound 215, 4-(4-(3-fluoro-4-(trifluoromethyl)phenyl)-6-hydroxy-1-oxoisoquinolin-2(1H)-yl)benzamide], for which the “Inhibition of AKR1C3 dependent conversion of androstenedione to testosterone” value on AKR1C3 [1] was “potently inhibited”.
In the case of `O=C(O)/C=C/c1cn(-c2ccc(O)cc2)c(=O)c2c(O)cc(O)cc12` [Compound 15l, (E)-3-(6,8-dihydroxy-2-(4-hydroxyphenyl)-1-oxo-1,2-dihydroisoquinolin-4-yl)acrylic acid], the results for the Ki on ER-α and on ER-β were above 1510 nM and 613 nM, respectively. This compound gave an IC50 on AKR1C3 [2] of 1710 nM.
`O=c1c2ccc(O)cc2c(-c2ccc(C(F)(F)F)cc2)cn1-c1ccc(O)cc1` [Compound 13, 6-hydroxy-2-(4-hydroxyphenyl)-4-(4-(trifluoromethyl)phenyl)isoquinolin-1(2H)-one]: the “HLM Phase I CLint” value in data set [3] (HLM Phase I) was 0.8 µL/min/mg. Besides, the “HLM Phase I + II CLint” value in [3] (HLM Phase I + II) amounted to 19.1 µL/min/mg. The “HLM Phase I + II T-1/2” value in [3] (HLM Phase I + II) is 40 min and 36.12 min. In addition, the figures for the microsomal CLint in data set [3] (setting [6]) and in [3] (setting [7]) were 17 µL/min/mg and below 1 µL/min/mg, respectively. The Ki at ER-α was above 1510 nM; on ER-β, 157 nM. For the same compound, the EC50 on ER-alpha and at ER-beta was above 10000 nM throughout. The IC50 on ER-alpha is above 10000 nM; at ER-beta it was 677 nM; on AKR1C3 [2], 451 nM. Further, the inhibition at 10 µM on AKR1C3 [4] (setting [8]) and at AKR1C3 [4] (setting [9]) was 52% in each case.
With `COc1ccc(C=CC(=O)O)cc1OC` [3,4,dimethoxy cinnamic acid], the IC50 at AKR1C3 [5] is above 10000 nM.
In the case of `O=c1c2ccc(O)cc2c(-c2ccc(C(F)(F)F)cc2)cn1-c1ccc(CBr)c(O)c1` [Compound 26, 2-(4-(bromomethyl)-3-hydroxyphenyl)-6-hydroxy-4-(4-(trifluoromethyl)phenyl)isoquinolin-1(2H)-one], the Ki at ER-α was above 1510 nM; on ER-β, above 2200 nM. Moreover, the EC50 at ER-alpha and at ER-beta was above 10000 nM each time. For the same compound, the IC50 on ER-alpha is above 10000 nM; on ER-beta it was above 10000 nM; at AKR1C3 [2] it was 289 nM. In addition, the inhibition at 10 µM at AKR1C3 [4] (setting [8]) and at AKR1C3 [4] (setting [9]) was 50% in each case.
As for `O=c1c2ccc(O)cc2c(-c2ccc(C(F)(F)F)cc2)cn1-c1ccc(C(F)(F)F)cc1` [Compound 30, 6-hydroxy-2,4-bis(4-(trifluoromethyl)phenyl)isoquinolin-1(2H)-one], in data set [3] (HLM Phase I), the “HLM Phase I T-1/2” value came to 102.3 min. Further, the “HLM Phase I + II T-1/2” value in data set [3] (HLM Phase I + II) came to 7.9 min. Moreover, the microsomal CLint was 88.1 µL/min/mg in data set [3] (setting [6]) and 6.8 µL/min/mg in data set [3] (setting [7]). Moreover, the Ki on ER-α was above 1510 nM; on ER-β, above 2200 nM. The EC50 at ER-alpha and at ER-beta was above 10000 nM each time. The IC50 at ER-alpha and at ER-beta was above 10000 nM each time. The inhibition at 10 µM on AKR1C3 [4] (setting [8]) and at AKR1C3 [4] (setting [9]) was 30% in each case.
As for `O=c1c2ccc(O)cc2c(-c2ccc(O)cc2)cn1-c1ccc(CO)cc1` [Compound 14, 6-hydroxy-2-(4-(hydroxymethyl)phenyl)-4-(4-hydroxyphenyl)isoquinolin-1(2H)-one], the Ki at ER-α was above 1510 nM; on ER-β it was above 2200 nM. Besides, the EC50 on ER-alpha and at ER-beta was above 10000 nM each time. The IC50 was above 10000 nM at ER-alpha, above 10000 nM on ER-beta and 1320 nM on AKR1C3 [2].

The values are drawn from patent publication US20130116277A1, “ALDO-KETO REDUCTASE SUBFAMILY 1C3 (AKR1C3) INHIBITORS” (priority 2007, published 2013).
